Measurements as given in the NIST ThermoML archive (doi:10.1021/je060339m).
± gives the expanded uncertainty stated by the source.

Conditions: Liquid

CCCCOC(C)=O [butyl ethanoate]
Conditions | mass density [kg/m3]
298.15 K, 100 kPa | 875.7 ± 3.2
298.15 K, 1000 kPa | 876.3 ± 3.3
298.15 K, 2000 kPa | 877.2 ± 3.4
298.15 K, 3000 kPa | 878 ± 3.5
298.15 K, 3100 kPa | 878.1 ± 3.5
298.15 K, 5000 kPa | 879.9 ± 3.7
298.15 K, 10000 kPa | 883.8 ± 4.3
298.15 K, 15000 kPa | 887.6 ± 4.9
298.15 K, 20000 kPa | 891.3 ± 5.5
298.15 K, 25000 kPa | 894.9 ± 6.1
298.15 K, 30000 kPa | 899.1 ± 6.7
298.15 K, 35000 kPa | 903.7 ± 7.3
303.15 K, 100 kPa | 870.4 ± 3.1
303.15 K, 1000 kPa | 871.1 ± 3.3
303.15 K, 2000 kPa | 872 ± 3.4
303.15 K, 3000 kPa | 872.9 ± 3.5
303.15 K, 3100 kPa | 873 ± 3.5
303.15 K, 5000 kPa | 874.7 ± 3.7
303.15 K, 10000 kPa | 878.8 ± 4.3
303.15 K, 15000 kPa | 882.8 ± 4.9
303.15 K, 20000 kPa | 886.5 ± 5.5
303.15 K, 25000 kPa | 890.2 ± 6.1
303.15 K, 30000 kPa | 894.4 ± 6.7
303.15 K, 35000 kPa | 899.1 ± 7.3
308.15 K, 100 kPa | 865.1 ± 3.1
308.15 K, 1000 kPa | 865.9 ± 3.3
308.15 K, 2000 kPa | 866.9 ± 3.4
308.15 K, 3000 kPa | 867.8 ± 3.5
308.15 K, 3100 kPa | 867.8 ± 3.5
308.15 K, 5000 kPa | 869.6 ± 3.7
308.15 K, 10000 kPa | 873.9 ± 4.3
308.15 K, 15000 kPa | 878 ± 4.9
308.15 K, 20000 kPa | 881.9 ± 5.5
308.15 K, 25000 kPa | 885.6 ± 6.1
308.15 K, 30000 kPa | 890 ± 6.7
308.15 K, 35000 kPa | 894.8 ± 7.3
313.15 K, 100 kPa | 859.9 ± 3.1
313.15 K, 1000 kPa | 860.8 ± 3.3
313.15 K, 2000 kPa | 861.7 ± 3.4
313.15 K, 3000 kPa | 862.7 ± 3.5
313.15 K, 3100 kPa | 862.7 ± 3.5
313.15 K, 5000 kPa | 864.6 ± 3.7
313.15 K, 10000 kPa | 869 ± 4.3
313.15 K, 15000 kPa | 873.2 ± 4.9
313.15 K, 20000 kPa | 877.2 ± 5.5
313.15 K, 25000 kPa | 881 ± 6.1
313.15 K, 30000 kPa | 885.6 ± 6.7
313.15 K, 35000 kPa | 890.5 ± 7.3
318.15 K, 100 kPa | 854.9 ± 3.1
318.15 K, 1000 kPa | 855.7 ± 3.3
318.15 K, 2000 kPa | 856.7 ± 3.4
318.15 K, 3000 kPa | 857.8 ± 3.5
318.15 K, 3100 kPa | 857.9 ± 3.5
318.15 K, 5000 kPa | 859.6 ± 3.7
318.15 K, 10000 kPa | 864.2 ± 4.3
318.15 K, 15000 kPa | 868.5 ± 4.9
318.15 K, 20000 kPa | 872.6 ± 5.5
318.15 K, 25000 kPa | 876.5 ± 6.1
318.15 K, 30000 kPa | 881.3 ± 6.7
318.15 K, 35000 kPa | 886.3 ± 7.3
323.15 K, 100 kPa | 849.7 ± 3.1
323.15 K, 1000 kPa | 851 ± 3.3
323.15 K, 2000 kPa | 852 ± 3.4
323.15 K, 3000 kPa | 853 ± 3.5
323.15 K, 3100 kPa | 853.1 ± 3.5
323.15 K, 5000 kPa | 854.6 ± 3.7
323.15 K, 10000 kPa | 859.4 ± 4.3
323.15 K, 15000 kPa | 863.9 ± 4.9
323.15 K, 20000 kPa | 868.1 ± 5.5
323.15 K, 25000 kPa | 872.3 ± 6.1
323.15 K, 30000 kPa | 877.3 ± 6.7
323.15 K, 35000 kPa | 882.4 ± 7.3
328.15 K, 100 kPa | 844.6 ± 3.1
328.15 K, 1000 kPa | 845.7 ± 3.3
328.15 K, 2000 kPa | 846.8 ± 3.4
328.15 K, 3000 kPa | 847.9 ± 3.5
328.15 K, 3100 kPa | 848 ± 3.5
328.15 K, 5000 kPa | 849.7 ± 3.7
328.15 K, 10000 kPa | 854.6 ± 4.3
328.15 K, 15000 kPa | 859.3 ± 4.9
328.15 K, 20000 kPa | 863.6 ± 5.5
328.15 K, 25000 kPa | 867.8 ± 6.1
328.15 K, 30000 kPa | 872.5 ± 6.7
328.15 K, 35000 kPa | 877.7 ± 7.3
333.15 K, 100 kPa | 839.6 ± 3.2
333.15 K, 1000 kPa | 840.7 ± 3.3
333.15 K, 2000 kPa | 841.8 ± 3.4
333.15 K, 3000 kPa | 842.9 ± 3.5
333.15 K, 3100 kPa | 842.9 ± 3.5
333.15 K, 5000 kPa | 844.9 ± 3.7
333.15 K, 10000 kPa | 850 ± 4.3
333.15 K, 15000 kPa | 854.8 ± 4.9
333.15 K, 20000 kPa | 859.3 ± 5.5
333.15 K, 25000 kPa | 863.6 ± 6.1
333.15 K, 30000 kPa | 868.6 ± 6.7
333.15 K, 35000 kPa | 873.9 ± 7.3
338.15 K, 100 kPa | 834.5 ± 3.2
338.15 K, 1000 kPa | 835.6 ± 3.3
338.15 K, 2000 kPa | 836.7 ± 3.4
338.15 K, 3000 kPa | 837.9 ± 3.5
338.15 K, 3100 kPa | 838 ± 3.5
338.15 K, 5000 kPa | 840.1 ± 3.7
338.15 K, 10000 kPa | 845.5 ± 4.3
338.15 K, 15000 kPa | 850.1 ± 4.9
338.15 K, 20000 kPa | 855 ± 5.5
338.15 K, 25000 kPa | 859.5 ± 6.1
338.15 K, 30000 kPa | 864.6 ± 6.7
338.15 K, 35000 kPa | 870.1 ± 7.3
343.15 K, 100 kPa | 829.5 ± 3.2
343.15 K, 1000 kPa | 830.5 ± 3.3
343.15 K, 2000 kPa | 831.7 ± 3.4
343.15 K, 3000 kPa | 832.9 ± 3.5
343.15 K, 3100 kPa | 833 ± 3.5
343.15 K, 5000 kPa | 835.2 ± 3.7
343.15 K, 10000 kPa | 840.7 ± 4.3
343.15 K, 15000 kPa | 845.7 ± 4.9
343.15 K, 20000 kPa | 850.5 ± 5.5
343.15 K, 25000 kPa | 855.1 ± 6.1
343.15 K, 30000 kPa | 860.7 ± 6.7
343.15 K, 35000 kPa | 866.3 ± 7.3
348.15 K, 100 kPa | 824.4 ± 3.2
348.15 K, 1000 kPa | 825.4 ± 3.3
348.15 K, 2000 kPa | 826.7 ± 3.4
348.15 K, 3000 kPa | 827.9 ± 3.5
348.15 K, 3100 kPa | 828 ± 3.5
348.15 K, 5000 kPa | 830.5 ± 3.7
348.15 K, 10000 kPa | 836.1 ± 4.3
348.15 K, 15000 kPa | 841.3 ± 4.9
348.15 K, 20000 kPa | 846.2 ± 5.5
348.15 K, 25000 kPa | 850.9 ± 6.1
348.15 K, 30000 kPa | 856.6 ± 6.7
348.15 K, 35000 kPa | 862.4 ± 7.3
353.15 K, 100 kPa | 819.3 ± 3.2
353.15 K, 1000 kPa | 820.4 ± 3.3
353.15 K, 2000 kPa | 821.7 ± 3.4
353.15 K, 3000 kPa | 822.9 ± 3.5
353.15 K, 3100 kPa | 823 ± 3.5
353.15 K, 5000 kPa | 825.5 ± 3.7
353.15 K, 10000 kPa | 831.3 ± 4.3
353.15 K, 15000 kPa | 836.7 ± 4.9
353.15 K, 20000 kPa | 841.8 ± 5.5
353.15 K, 25000 kPa | 846.7 ± 6.1
353.15 K, 30000 kPa | 852.5 ± 6.7
353.15 K, 35000 kPa | 858.4 ± 7.3
358.15 K, 100 kPa | 811.6 ± 3.2
358.15 K, 1000 kPa | 813.2 ± 3.3
358.15 K, 2000 kPa | 813.9 ± 3.4
358.15 K, 3100 kPa | 815.3 ± 3.5
358.15 K, 5000 kPa | 817.7 ± 3.8
358.15 K, 10000 kPa | 823.6 ± 4.4
358.15 K, 15000 kPa | 829.1 ± 5
358.15 K, 20000 kPa | 835.5 ± 5.6
363.15 K, 100 kPa | 806.1 ± 3.2
363.15 K, 1000 kPa | 807.5 ± 3.3
363.15 K, 2000 kPa | 808.8 ± 3.4
363.15 K, 3000 kPa | 810.1 ± 3.5
363.15 K, 3100 kPa | 810.3 ± 3.5
363.15 K, 5000 kPa | 812.8 ± 3.8
363.15 K, 10000 kPa | 819.2 ± 4.4
363.15 K, 15000 kPa | 824.9 ± 5
363.15 K, 20000 kPa | 830.4 ± 5.6
368.15 K, 100 kPa | 800.3 ± 3.2
368.15 K, 1000 kPa | 802.1 ± 3.3
368.15 K, 2000 kPa | 803.6 ± 3.4
368.15 K, 3000 kPa | 804.8 ± 3.5
368.15 K, 3100 kPa | 805 ± 3.5
368.15 K, 5000 kPa | 807.7 ± 3.8
368.15 K, 10000 kPa | 814.3 ± 4.4
368.15 K, 15000 kPa | 820.3 ± 5
368.15 K, 20000 kPa | 825.9 ± 5.6
373.15 K, 100 kPa | 795.8 ± 3.2
373.15 K, 1000 kPa | 797.2 ± 3.3
373.15 K, 2000 kPa | 798.7 ± 3.4
373.15 K, 3000 kPa | 800.2 ± 3.5
373.15 K, 3100 kPa | 800.4 ± 3.5
373.15 K, 5000 kPa | 803.1 ± 3.8
373.15 K, 10000 kPa | 809.9 ± 4.4
373.15 K, 15000 kPa | 815.9 ± 5
373.15 K, 20000 kPa | 821.3 ± 5.6
378.15 K, 100 kPa | 790.4 ± 3.2
378.15 K, 1000 kPa | 791.9 ± 3.3
378.15 K, 2000 kPa | 793.7 ± 3.4
378.15 K, 3000 kPa | 795.2 ± 3.5
378.15 K, 3100 kPa | 795.4 ± 3.6
378.15 K, 5000 kPa | 798 ± 3.8
378.15 K, 10000 kPa | 804.7 ± 4.4
378.15 K, 15000 kPa | 810.8 ± 5
378.15 K, 20000 kPa | 817.1 ± 5.6
383.15 K, 100 kPa | 785.2 ± 3.2
383.15 K, 1000 kPa | 786.7 ± 3.3
383.15 K, 2000 kPa | 788.3 ± 3.4
383.15 K, 3000 kPa | 789.9 ± 3.6
383.15 K, 3100 kPa | 790 ± 3.6
383.15 K, 5000 kPa | 792.9 ± 3.8
383.15 K, 10000 kPa | 800.1 ± 4.4
383.15 K, 15000 kPa | 806.7 ± 5
383.15 K, 20000 kPa | 812.8 ± 5.6
388.15 K, 100 kPa | 779.9 ± 3.2
388.15 K, 1000 kPa | 781.6 ± 3.3
388.15 K, 2000 kPa | 783.2 ± 3.5
388.15 K, 3000 kPa | 785.2 ± 3.6
388.15 K, 3100 kPa | 785.4 ± 3.6
388.15 K, 5000 kPa | 788.4 ± 3.8
388.15 K, 10000 kPa | 795.8 ± 4.4
388.15 K, 15000 kPa | 802.4 ± 5
388.15 K, 20000 kPa | 808.6 ± 5.6
393.15 K, 100 kPa | 775.2 ± 3.2
393.15 K, 1000 kPa | 776.4 ± 3.4
393.15 K, 2000 kPa | 778.1 ± 3.5
393.15 K, 3000 kPa | 779.5 ± 3.6
393.15 K, 3100 kPa | 779.7 ± 3.6
393.15 K, 5000 kPa | 782.8 ± 3.8
393.15 K, 10000 kPa | 790.6 ± 4.4
393.15 K, 15000 kPa | 797.7 ± 5
393.15 K, 20000 kPa | 804.2 ± 5.6
